Values quoted from earlier work in patent US7491713B2, “CGRP receptor antagonists” (Merck + Co., Inc., priority 2004, dated 2009).
Ends that are not written are not given here.

Experiments:
marmoset = marmoset (Doods et al. 2000)
rat = rat (Escott et al. 1995)
rats = conditions: prior administration (Williamson et al. 1997)

Row | Molecule | effect on stimulation-induced increase of facial blood flow (marmoset) | effect on stimulation-induced increase of facial blood flow (rat) | effect on stimulation-induced increase of middle meningeal artery diameter (rats)
1 | NCCCC[C@H](NC(=O)[C@@H](Cc1cc(Br)c(O)c(Br)c1)NC(=O)N1CCC(N2Cc3ccccc3NC2=O)CC1)C(=O)N1CCN(c2ccncc2)CC1 [BIBN4096BS] | blocked | – | –
2 | CGRP(8-37): a fragment of CGRP that lacks seven N-terminal amino acid residues; a peptide CGRP antagonist (VTHRLAGLLSRSGGVVKNNFVPTNVGSKAF; ends and bridges not checked; UniProt P06881 90-119, looked up, fragment) | – | inhibited | blocked
